Values quoted from earlier work, collected in PMC5731893, “Therapeutic potential of an anti-angiogenic multimodal biomimetic peptide in hepatocellular carcinoma” (Oncotarget, 2017).

How the values were obtained:
HCC = test system: HCC
Text: Liver cancer is one of the top causes of cancer related mortality in the world and the incidence has been increasing in the US for decades. Surgical resection and/or liver transplantation are the curative options for early diagnosed hepatocellular cancers. However, the prognosis for advanced stages of the disease is dismal owing to a lack of chemotherapeutic options. A series of anti-angiogenic drugs have been undergoing clinical trials for some time but they have not had much success because of drug related toxicity and partly because many cases of HCC are refractory to different ... || Compared to normal liver cells, HCC tumor cells are often associated with the dysregulation of numerous cellular signaling pathways. Expression changes or mutations of growth factor signaling components, specifically c-Met and insulin-like growth factor 1 receptor (IGF1R) are well documented in the pathogenesis of HCC [10]. Overexpression of c-Met and IGF1R is observed in 20-48% or 33% of HCC tumors, respectively, as are increases in the expression of the IGF1R ligand IGF-II [11]. Downstream effectors of insulin receptor substrates 1 (IRS-1) and 2 (IRS-2) have likewise been r ...

HCC tumors = test system: HCC tumors
Text: Angiogenesis is a common feature of many solid tumors and plays a critical role in growth and metastatic progression of HCC. […] Aflibercept speci ... || The dual inhibition of cancer and endothelial cell functions may synergize through the reduction of resistance pathways normally associated with anti-angiogenic therapies. While angiogenesis is important for the exponential growth of cancerous tissue, non-angiogenic processes for tumor vascularization may help bypass the effects of strictly angiogenesis-based therapies. In particular, vessel co-option, or the hijacking of existing vasculature for tumor growth, is observed in models of HCC and has been associated with the diminishing efficacy of extended sorafenib treatment. Tumors from orthoto ...

HCC cells = test system: HCC cells
Text: Liver cancer is one of the top causes of cancer related mortality in the world and the incidence has been increasing in the US for decades. Surgical resection and/or liver transplantation are the curative options for early diagnosed hepatocellular cancers. However, the prognosis for advanced stages of the disease is dismal owing to a lack of chemotherapeutic options. A series of anti-angiogenic drugs have been undergoing clinical trials for some time but they have not had much success because of drug related toxicity and partly because many cases of HCC are refractory to different ...

## CNC(=O)c1cc(Oc2ccc(NC(=O)Nc3ccc(Cl)c(C(F)(F)F)c3)cc2)ccn1 [Sorafenib]
HCC; human, in vivo
  side effects: clinically significant
HCC tumors; orthotopic mouse models of HCC
  vessel co-option vs angiogenic mechanisms after administration: significant preference towards vessel co-option over angiogenic mechanisms
HCC cells
  effect on sensitivity to apoptotic stimuli: sensitize the cells to apoptotic stimuli
HCC cells; within the S/G2/M phases of the cell cycle
  effect on HCC proliferation: slow HCC proliferation

## aflibercept: soluble decoy construct containing a fusion of VEGFR1 and VEGFR2 ligand binding domains
HCC tumors; several mouse models of HCC
  effect on tumor growth: inhibit tumor growth

## O=C1NC(=O)[C@@H](c2cn3c4c(cccc24)CCC3)[C@@H]1c1c[nH]c2ccccc12 [tivantinib]
HCC; phase II, c-Met positive HCC
  effect on overall survival: significantly improve overall survival

## CNC(=O)c1cc(Oc2ccc(NC(=O)Nc3ccc(Cl)c(C(F)(F)F)c3)c(F)c2)ccn1 [regorafenib]
HCC; advanced HCC that progress under sorafenib, phase III
  increase of median survival: 3 months
